Literature values as cited in patent publication US20030216431A1, “Ophthalmic pharmaceutical compositions and methods for treating ocular inflammation” (priority 2002, published 2003).

Details: for daily dosage causing serious retinopathy: systemic use in patients, nearly all instances

CCN(CC)CCCC(C)Nc1ccnc2cc(Cl)ccc12.O=S(=O)(O)O (stereo not shown) [chloroquine sulfate, Quinoline, 7-chloro-4-((4-(diethylamino)-1-methylbutyl)amino)-, sulfate]
daily dosage causing serious retinopathy: > 200 mg per day

CCN(CC)CCCC(C)Nc1ccnc2cc(Cl)ccc12 (stereo not shown) [chloroquine, Chloroquine]
duration of intake without clinically evident retinopathy (not exceeding 250 mg diphosphate or 200 mg sulfate per day): nine

CCN(CC)CCCC(C)Nc1ccnc2cc(Cl)ccc12 (stereo not shown) [chloroquine diphosphate, Quinoline, 7-chloro-4-((4-(diethylamino)-1-methylbutyl)amino)-, diphosphate]
time to onset of definite retinopathy (dosage slightly greater than 250 mg chloroquine diphosphate per day): one to three | daily dosage causing serious retinopathy: more than 250 mg per day
